Measured values from US10385395B2, “Diagnostic tools for response to 6-thiopurine therapy” (THE REGENTS OF THE UNIVERSITY OF CALIFORNIA, priority 2012, dated 2019).

Experiments:
NK cells = conditions: Crohn's disease patients; Brogan et al. 1985; cited from earlier work
[1] = tested on: CD4+ T cell proliferation; experiment: T cell proliferation in the absence of NK cells with exogenous cytokines added; type: cell-based, human; conditions: cytokine added at 20 ng mL-1, three-day culture (FIG. 9)
Description: Before co-culture, round bottom 96-well plates were coated with anti-CD3/CD28 antibody (R&D Systems, Minneapolis, Minn.) in PBS at 1.5 ug ml^−1 at room temperature for 2 hours, or at 0.5 ug ml^−1 at 4° C. overnight. […] For transwell assay, 24-well plates were used; NT (cells were placed on the filter side of a 1.0 um pore-sized transwell (BD Falcon, San Jose, Calif.), and CFSE-stained T cells were placed on the plate side of the transwell.

Molecule | depletion of NK cells by therapy compared to other lymphoid cell types (NK cells) | CD4+ cell proliferation with exogenous cytokine [1]
Nc1nc2nc[nH]c2c(=S)[nH]1 [6-thioguanine] | quickly and profoundly depleted | 
IL-6: recombinant cytokine (R&D Systems) added to a final concentration of 20 ng ml-1 |  | greatly facilitated
IFN-y: recombinant cytokine (R&D Systems) added to a final concentration of 20 ng ml-1 (protein, UniProt P01579 24-161, looked up) Interferon gamma: QDPYVKEAENLKKYFNAGHSDVADNGTLFLGILKNWKEESDRKIMQSQIVSFYFKLFKNFKDDQSIQKSVETIKEDMNVKFFNSNKKKRDDFEKLTNYSVTDLNVQRKAIHELIQVMAELSPAAKTGKRKRSQMLFRG |  | marginal effects
